These results are taken from US20140187594A1, “DIPHENYL ETHER COMPOUNDS FOR THE TREATMENT OF LIVER, LUNG DISORDERS, DIABETIC COMPLICATIONS AND CARDIOVASCULAR DISEASES” (ORCHID CHEMICALS AND PHARMACEUTICALS LTD, priority 2010, published 2014).

The target of assay [1] is T1, Rat lens Aldose reductase (Rattus norvegicus, UniProt P07943).
T1 construct: Rat lens Aldose reductase is used; from tissue; host or cells: rat lens
Description: Aldose reductase inhibitory activity. It counts as biochemical. The following applies: rat lens enzyme, 0.2 mM NADPH, pH 6.2, 25° C. On the procedure: Rat lens Aldose reductase is used. Test compound and/or vehicle is preincubated with 3000 μg/ml enzyme (J. Enzyme Inhib. 1993, 7, 249-256; Biol. Pharm. Bull. 1994, 17, 458-459) and 0.2 mM NADPH in phosphate buffer pH 6.2 for 15 minutes at 25° C. The reaction is initiated by addition of 10 mM DL-glyceraldehyde and incubated for another 20 minutes. Determination of the amount of NADPH remained is read spectrophotometrically. Compounds are screened at 10 μM. Since enzyme activity may change from lot to lot, the concentration used will be adjusted if necessary.

The next assay concerns 3T3-L1 fibroblasts. The assay is described as follows: Adipogenesis in 3T3-L1 mouse fibroblast (oil red O staining). It counts as cell-based. Conditions: 1 μM or 10 μM, 7 days. On the procedure: 3T3-L1 fibroblasts were seeded at a concentration of 10,000 cells/well in 24 well tissue culture plates in a total volume of 1 mL Dulbecco's Modified Eagle Medium (DMEM media) containing 10% fetal bovine serum, penicillin and streptomycin. […] After every two days, the media contents were replaced with fresh media and the drug. This process was carried out for 7 days. After 7 days of treatment, the cells were fixed in 10% formalin for 1 hour at […], stained with oil red 0 solution for 10 minutes and washed 6 times with 1×PBS to remove the excess stain. The plates were dried and visualized under 40× objective using Nikon E200 microscope and the pictures were taken by Nikon DXM 1200C digital camera.

The next assay relates to TNF-α. The assay is described as follows: LPS induced serum TNF-α in vivo. On the set-up: species or system mice. The following applies: 50 mg/kg/day oral, 10 days, LPS 400 μg/kg IP, FIG. 39. From the text:
(§1) Based on the results obtained in the in-vitro studies, it can be concluded that Compounds A, B and C are moderately potent inhibitors of Aldose Reductase. […] At the end of the assay, cell lysates were probed with anti iNOS antibody. Compound of formula (A) inhibits the iNOS production in these cells (FIG. 38). […] Since iNOS is implicated in the pathology of diabetic complications, it is anticipated that Compound of formula (A) will have a protective effect in the development of neovascularization contributed by elevated iNOS. Inhibits LPS induced TNF-α and IL-6 Inhibition In Vivo: This study was undertaken when the mice are at 10-11 weeks in age. On Day 0 their body weights were measured and they were assigned to two groups of 6 mice each to get similar average group body weights. They were orally administered with either vehicle (deionized water, Group 1) or Compound of formula (A) (50 mg/kg; Group 2) daily between 9:30 and 10:30 AM for 10 days. The body weights were measured on day 3, 7 and 10 of the study before administration of vehicle or drug. On Day 10, the mice were administered LPS at 400 μg/kg, IP. After 1 hour they were orally administered with either vehicle or Compound of formula (A). […]
Serum TNF-α concentration for each group of mice is determined using the Quantikine. […] The optical density of each well was read at 450 nm using the Microplate Reader (FIG. 39).

The subject of another assay is IL-6. The assay is described as follows: LPS induced serum IL-6 in vivo. On the set-up: species or system mice. Conditions: 50 mg/kg/day oral, 10 days, LPS 400 μg/kg IP, FIG. 40.
Text: as §1
Serum IL-6 concentration for each group of mice is determined using the Quantikine Mouse IL-6 Immunoassay kit. […] The optical density of each well was read at 450 nm Microplate Reader (FIG. 40).

In assay [2] the test system is acute alcohol induced hypertriglyceridemic mice. Description: Acute alcohol induced hypertriglyceridemia. Type of assay: in vivo, C57BL/6 mice. Conditions: (A) 100 mg/kg, disodium salt of (C) 30 mg/kg p.o., seven days, 40% alcohol challenge; FIG. 33. On the procedure:
Male C57BL/6 mice aged 6-8 weeks, and body weight ranges between 22-28 g were used for this study. Animals were divided into four groups (n=8) and fed normal chow feed (Nutri Lab® Rodent, Tetragon Chemie Pvt. Ltd., Bangalore) and drinking water. The Group I and Group II animals were served as a normal and disease control treated with vehicle. Group III (n=8) and Group IV (n=8) animals were treated with compound of formula (A) and disodium salts of compound of formula (C) at 100 and 30 mg/kg p.o respectively for seven days. On 7th day one hour post administration of compounds Group II, Group III and Group IV animals were challenged with 40% alcohol (10 ml/kg b.w) p.o. Eighteen hours post challenge animals were bled, plasma separated and used for biochemical parameter analysis.
The parameters like Glucose, ALT, AST, TC, TG (Clinical chemistry analyzer Erba XL 300), insulin (Linco®-CA, Product code: EZRMI-13K) and TNFα (GE Healthcare, Amersham, UK. Product code: RPN2718) were measured using commercially available kits. NEFA was measured in serum using commercially available NEFA C kit (Product code No: 279-75401, Wako pure chemical industries ltd., Japan).

The IC50 is the concentration that inhibits the measured activity by half. Low readings indicate greater potency, high ones weaker potency.

The compound `COC(=O)[C@@H](N)Cc1ccc(Oc2ccc(CC3SC(=O)NC3=O)cc2)cc1` (stereo partly drawn) [Compound of formula (A), Methyl(2S)-2-amino-3-(4-{4-[(2,4-dioxo-1,3-thiazolidin-5-yl)methyl]phenoxy}phenyl)propanoate] yielded an IC50 in assay [1] of 4.07 µM. For the same compound, in the assay with 3T3-L1 fibroblasts, the “adipogenesis (intracellular lipids stained with oil red O)” value was “did not induce adipogenesis”. The “Serum TNF-α level” value in the assay on TNF-α is “reduction in TNF-α”. The “Serum IL-6 level” value with IL-6 is on record as “reduction”. The “plasma TG” value in assay [2] is reported as “significant reduction in TG”.
